The values below come from US20130018039A1, “IMIDAZOLYL-IMIDAZOLES AS KINASE INHIBITORS” (priority 2010, published 2013).

Molecules are shown by their SMILES.

This assay concerns the target T1, RIPK2 (full length FLAG His tagged RIPK2; RIP2 kinase) (Homo sapiens, UniProt O43353).
T1 construct: Full length FLAG His tagged RIPK2 was purified from a Baculovirus expression system; FLAG (N); 6His (N); made in house; host or cells: Spodoptera frugiperda (Sf9) insect cells, baculovirus
The assay is described as follows: Fluorescent polarization based binding assay, competition with a fluorescently labeled ATP competitive ligand at the ATP binding pocket of RIPK2. The note with it: pIC50s averaged, minimum of 2 experiments; fluorescent ligand 5 nM; read-out: mean pIC50 (converted). An excerpt:
A fluorescent polarization based binding assay was developed to quantitate interaction of novel test compounds at the ATP binding pocket of RIPK2, by competition with a fluorescently labeled ATP competitive ligand. Full length FLAG His tagged RIPK2 was purified from a Baculovirus expression system and was used at a final assay concentration of twice the KDapparent. A fluorescent labeled ligand (5-({[2-({[3-({4-[(5-hydroxy-2-methylphenyl)amino]-2-pyrimidinyl}amino)phenyl]carbonyl}amino)ethyl]amino}carbonyl)-2-(6-hydroxy-3-oxo-3H-xanthen-9-yl)benzoic acid, prepared as described below) was used at a final assay concentration of 5 nM. Both the enzyme and ligand were prepared in solutions in 50 mM HEPES pH7.5, 150 mM NaCl, 10 mM MgCl2, 1 mM DTT, and 1 mM CHAPS. Test compounds were prepared in 100% DMSO and […] was dispensed to individual wells of a multiwell plate. Next, 5 ul RIPK2 was added to the test compounds at twice the final assay concentration, and incubated at room temperature for 10 minutes. […] Finally, samples were read on an instrument capable of measuring fluorescent polarization. Test compound inhibition was expressed as percent (%) inhibition of internal assay controls.
For concentration response experiments, normalized data were fit and pIC50s determined using conventional techniques. […]

T1 sequence (O43353 whole entry): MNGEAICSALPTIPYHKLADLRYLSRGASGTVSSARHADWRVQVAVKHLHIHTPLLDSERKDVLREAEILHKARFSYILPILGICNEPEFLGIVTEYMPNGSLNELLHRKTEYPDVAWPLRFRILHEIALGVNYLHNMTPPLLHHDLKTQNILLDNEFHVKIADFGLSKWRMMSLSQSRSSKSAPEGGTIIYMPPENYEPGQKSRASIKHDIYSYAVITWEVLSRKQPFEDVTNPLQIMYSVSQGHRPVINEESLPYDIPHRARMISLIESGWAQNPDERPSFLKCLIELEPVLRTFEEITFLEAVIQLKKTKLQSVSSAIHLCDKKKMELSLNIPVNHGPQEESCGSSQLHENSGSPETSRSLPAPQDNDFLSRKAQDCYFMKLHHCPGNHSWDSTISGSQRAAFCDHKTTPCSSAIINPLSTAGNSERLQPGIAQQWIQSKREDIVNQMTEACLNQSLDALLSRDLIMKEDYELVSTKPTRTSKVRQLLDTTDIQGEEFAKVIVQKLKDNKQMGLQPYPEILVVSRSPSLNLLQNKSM

As to `COCCNC(=O)c1ccc2c(c1)nc(-c1cnc(-c3ccccc3)[nH]1)n2CCOC` [Example 39, N,1-bis[2-(methyloxy)ethyl]-2-(2-phenyl-1H-imidazol-4-yl)-1H-benzimidazole-5-carboxamide], the IC50 is 10 µM. In the case of `CNC(=O)c1ccc2c(c1)nc(-c1c[nH]c(-c3ccc(Cl)cc3)n1)n2Cc1ccccn1` [Example 2, 2-[2-(4-chlorophenyl)-1H-imidazol-4-yl]-N-methyl-1-(2-pyridinylmethyl)-1H-benzimidazole-5-carboxamide], the IC50 was 10 µM.
